Where a name gives a salt, the structure may show the parent alone.
Tested on: renin
Test: renin inhibitory activity, in vitro test (as described in US-A-4880781 and EP-A-0 173 481, pages 103-105)
Type: biochemical
Conditions: at 10⁻⁸M; printed under the heading IC₅₀(M)
Protocol: In the examples below, the renin inhibitory activity of the compounds of the present invention (IC₅₀'s) are determined using the in vitro test described in US-A-4880 781 (U.S. patent application, Serial No. 07/147,073, filed 20 January 1988), and in EP-A-0 173 481, published 5 March 1986, pages 103-105, which are hereby incorporarted by reference.

COc1ccc(C[C@H](NC(=O)[C@@H]2CCCN2C(=O)CC[C@H](N)C(=O)O)C(=O)N[C@@H](Cc2c[nH]cn2)C(=O)N[C@@H](CC2CCCCC2)[C@@H](O)[C@@H](O)CC(C)(C)N)cc1 [Example 7, L-Arabino-heptitol6-amino-1,2,5,6,7-pentadeoxy-1-cyclohexyl-2-[[N-[N-(1-L-γ-glutamyl-L-prolyl)-O-methyl-L-tyrosyl]-L-histidyl]-amino]-6-methyl-, tris(trisluoroacetate) salt]
inhibition: 34%
